# In the kinase profiling compilation of Christmann-Franck et al. (2016):
# Tests used:
# [1] = test system: ABL1 (human), P00519 [F317I]; test: KINOMEscan competition binding; details: compound 10.0 µM
# ALK (human) = ALK (human) (UniProt Q9UM73); test: KINOMEscan competition binding; details: compound 10.0 µM
# DCLK1 (human) = DCLK1 (human) (UniProt O15075); test: KINOMEscan competition binding; details: compound 10.0 µM
# DCLK2 (human) = DCLK2 (human) (UniProt Q8N568); test: KINOMEscan competition binding; details: compound 10.0 µM
# FRK (human) = FRK (human) (UniProt P42685); test: KINOMEscan competition binding; details: compound 10.0 µM
# MAPK7 (human) = MAPK7 (human) (UniProt Q13164); test: KINOMEscan competition binding; details: compound 10.0 µM
# PLK1 (human) = PLK1 (human) (UniProt P53350); test: KINOMEscan competition binding; details: compound 10.0 µM
# PLK4 (human) = PLK4 (human) (UniProt O00444); test: KINOMEscan competition binding; details: compound 10.0 µM
# PTK2 (human) = PTK2 (human) (UniProt Q05397); test: KINOMEscan competition binding; details: compound 10.0 µM
# ROS1 (human) = ROS1 (human) (UniProt P08922); test: KINOMEscan competition binding; details: compound 10.0 µM
# TNK1 (human) = TNK1 (human) (UniProt Q13470); test: KINOMEscan competition binding; details: compound 10.0 µM
# TNK2 (human) = TNK2 (human) (UniProt Q07912); test: KINOMEscan competition binding; details: compound 10.0 µM
# TTK (human) [2] = target: TTK (human) (UniProt P33981); test: KINOMEscan competition binding; details: for kinase still bound, per cent of control: compound 10.0 µM
# ULK2 (human) = ULK2 (human) (UniProt Q8IYT8); test: KINOMEscan competition binding; details: compound 10.0 µM
# TTK (human) [3] = target: TTK (human) (UniProt P33981); test: SelectScreen, TR FRET
# CLK2 (human) = CLK2 (human) (UniProt P49760); test: KINOMEscan competition binding; details: compound 10.0 µM
# FLT3 (human) = FLT3 (human) (UniProt P36888); test: KINOMEscan competition binding; details: compound 10.0 µM
# [4] = test system: FLT3 (human), P36888 [K663Q]; test: KINOMEscan competition binding; details: compound 10.0 µM
# GAK (human) = GAK (human) (UniProt O14976); test: KINOMEscan competition binding; details: compound 10.0 µM
# KIT (human) = KIT (human) (UniProt P10721); test: KINOMEscan competition binding; details: compound 10.0 µM
# [5] = test system: KIT (human), P10721 [V559D]; test: KINOMEscan competition binding; details: compound 10.0 µM
# PDGFRB (human) = PDGFRB (human) (UniProt P09619); test: KINOMEscan competition binding; details: compound 10.0 µM
# RPS6KA2 KD2 (human) = RPS6KA2 KD2 (human) (UniProt Q15349); test: KINOMEscan competition binding; details: compound 10.0 µM
# STK33 (human) = STK33 (human) (UniProt Q9BYT3); test: KINOMEscan competition binding; details: compound 10.0 µM
# CAMKK2 (human) = CAMKK2 (human) (UniProt Q96RR4); test: KINOMEscan competition binding; details: compound 10.0 µM
# [6] = test system: PIK3CA (human), P42336 [E545K]; test: KINOMEscan competition binding; details: compound 10.0 µM
# CAMK2A (human) = CAMK2A (human) (UniProt Q9UQM7); test: KINOMEscan competition binding; details: compound 10.0 µM
# CAMK2D (human) = CAMK2D (human) (UniProt Q13557); test: KINOMEscan competition binding; details: compound 10.0 µM
# CAMK2G (human) = CAMK2G (human) (UniProt Q13555); test: KINOMEscan competition binding; details: compound 10.0 µM
# PTK2B (human) = PTK2B (human) (UniProt Q14289); test: KINOMEscan competition binding; details: compound 10.0 µM
# BMP2K (human) = BMP2K (human) (UniProt Q9NSY1); test: KINOMEscan competition binding; details: compound 10.0 µM
# MKNK2 (human) = MKNK2 (human) (UniProt Q9HBH9); test: KINOMEscan competition binding; details: compound 10.0 µM
# MYLK4 (human) = MYLK4 (human) (UniProt Q86YV6); test: KINOMEscan competition binding; details: compound 10.0 µM
# RIOK1 (human) = RIOK1 (human) (UniProt Q9BRS2); test: KINOMEscan competition binding; details: compound 10.0 µM
# RIOK3 (human) = RIOK3 (human) (UniProt O14730); test: KINOMEscan competition binding; details: compound 10.0 µM
# SRPK1 (human) = SRPK1 (human) (UniProt Q96SB4); test: KINOMEscan competition binding; details: compound 10.0 µM
# MAP2K3 (human) = MAP2K3 (human) (UniProt P46734); test: KINOMEscan competition binding; details: compound 10.0 µM
# MAP2K4 (human) = MAP2K4 (human) (UniProt P45985); test: KINOMEscan competition binding; details: compound 10.0 µM
# AAK1 (human) = AAK1 (human) (UniProt Q2M2I8); test: KINOMEscan competition binding; details: compound 10.0 µM
# PIM3 (human) = PIM3 (human) (UniProt Q86V86); test: KINOMEscan competition binding; details: compound 10.0 µM
# SRPK3 (human) = SRPK3 (human) (UniProt Q9UPE1); test: KINOMEscan competition binding; details: compound 10.0 µM
# STK17A (human) = STK17A (human) (UniProt Q9UEE5); test: KINOMEscan competition binding; details: compound 10.0 µM
# [7] = target: TYK2 JH2 pseudokinase (human) (UniProt P29597); test: KINOMEscan competition binding; details: compound 10.0 µM
# MYLK (human) = MYLK (human) (UniProt Q15746); test: KINOMEscan competition binding; details: compound 10.0 µM
# PIM1 (human) = PIM1 (human) (UniProt P11309); test: SelectScreen, TR FRET
# PIM2 (human) = PIM2 (human) (UniProt Q9P1W9); test: SelectScreen, TR FRET
# PLK3 (human) = PLK3 (human) (UniProt Q9H4B4); test: KINOMEscan competition binding; details: compound 10.0 µM
# Chain of STK33 (human) (Q9BYT3 whole entry, looked up): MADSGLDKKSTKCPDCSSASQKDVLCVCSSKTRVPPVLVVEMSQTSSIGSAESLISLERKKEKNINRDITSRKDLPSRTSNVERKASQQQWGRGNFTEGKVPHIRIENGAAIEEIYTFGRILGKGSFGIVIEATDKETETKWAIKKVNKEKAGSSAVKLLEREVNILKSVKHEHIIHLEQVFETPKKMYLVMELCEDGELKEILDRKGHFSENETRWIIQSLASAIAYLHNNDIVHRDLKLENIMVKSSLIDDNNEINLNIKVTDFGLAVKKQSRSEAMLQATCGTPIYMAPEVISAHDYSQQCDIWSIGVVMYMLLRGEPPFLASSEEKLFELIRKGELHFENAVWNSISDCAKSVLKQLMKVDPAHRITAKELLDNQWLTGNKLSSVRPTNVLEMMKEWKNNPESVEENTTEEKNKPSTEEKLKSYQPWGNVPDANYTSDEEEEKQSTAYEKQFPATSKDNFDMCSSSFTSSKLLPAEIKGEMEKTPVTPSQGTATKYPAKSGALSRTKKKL
# Chain of DCLK2 (human) (Q8N568 whole entry, looked up): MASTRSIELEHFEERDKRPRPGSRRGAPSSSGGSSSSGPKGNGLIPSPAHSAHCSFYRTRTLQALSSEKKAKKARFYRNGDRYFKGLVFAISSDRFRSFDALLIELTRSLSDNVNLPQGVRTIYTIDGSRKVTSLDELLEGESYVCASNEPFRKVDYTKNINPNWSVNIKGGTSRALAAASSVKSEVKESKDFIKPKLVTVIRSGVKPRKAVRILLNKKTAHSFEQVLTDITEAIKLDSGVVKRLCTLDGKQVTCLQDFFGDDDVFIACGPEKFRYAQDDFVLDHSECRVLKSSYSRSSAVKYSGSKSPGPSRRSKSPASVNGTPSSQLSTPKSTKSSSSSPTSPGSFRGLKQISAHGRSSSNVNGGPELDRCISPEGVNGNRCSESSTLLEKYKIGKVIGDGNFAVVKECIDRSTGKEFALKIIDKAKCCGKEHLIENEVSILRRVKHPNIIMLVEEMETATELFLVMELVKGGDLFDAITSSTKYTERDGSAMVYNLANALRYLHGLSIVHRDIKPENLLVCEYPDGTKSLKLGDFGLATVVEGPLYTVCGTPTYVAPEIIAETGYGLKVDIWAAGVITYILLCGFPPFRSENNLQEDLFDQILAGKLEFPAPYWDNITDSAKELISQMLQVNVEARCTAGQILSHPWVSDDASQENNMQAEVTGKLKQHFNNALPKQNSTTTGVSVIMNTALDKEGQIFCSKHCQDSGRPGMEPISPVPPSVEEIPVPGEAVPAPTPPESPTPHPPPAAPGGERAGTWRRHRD
# Chain of PLK1 (human) (P53350 whole entry, looked up): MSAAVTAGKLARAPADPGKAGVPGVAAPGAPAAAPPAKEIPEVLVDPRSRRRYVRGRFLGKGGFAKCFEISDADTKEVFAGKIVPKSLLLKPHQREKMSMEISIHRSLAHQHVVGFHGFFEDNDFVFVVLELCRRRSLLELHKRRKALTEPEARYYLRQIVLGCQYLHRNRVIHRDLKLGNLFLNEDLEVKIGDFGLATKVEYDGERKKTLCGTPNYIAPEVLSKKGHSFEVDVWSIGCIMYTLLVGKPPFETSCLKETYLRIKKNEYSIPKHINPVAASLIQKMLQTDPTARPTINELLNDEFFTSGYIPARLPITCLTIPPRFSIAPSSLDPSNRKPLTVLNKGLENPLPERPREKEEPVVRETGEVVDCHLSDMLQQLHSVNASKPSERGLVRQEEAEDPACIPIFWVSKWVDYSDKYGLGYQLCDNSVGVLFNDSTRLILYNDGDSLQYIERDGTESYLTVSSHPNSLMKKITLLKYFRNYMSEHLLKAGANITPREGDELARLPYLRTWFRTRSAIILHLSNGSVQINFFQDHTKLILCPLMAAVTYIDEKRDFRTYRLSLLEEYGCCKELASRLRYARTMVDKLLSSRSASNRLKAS
# Chain of TTK (human) (P33981 whole entry, looked up): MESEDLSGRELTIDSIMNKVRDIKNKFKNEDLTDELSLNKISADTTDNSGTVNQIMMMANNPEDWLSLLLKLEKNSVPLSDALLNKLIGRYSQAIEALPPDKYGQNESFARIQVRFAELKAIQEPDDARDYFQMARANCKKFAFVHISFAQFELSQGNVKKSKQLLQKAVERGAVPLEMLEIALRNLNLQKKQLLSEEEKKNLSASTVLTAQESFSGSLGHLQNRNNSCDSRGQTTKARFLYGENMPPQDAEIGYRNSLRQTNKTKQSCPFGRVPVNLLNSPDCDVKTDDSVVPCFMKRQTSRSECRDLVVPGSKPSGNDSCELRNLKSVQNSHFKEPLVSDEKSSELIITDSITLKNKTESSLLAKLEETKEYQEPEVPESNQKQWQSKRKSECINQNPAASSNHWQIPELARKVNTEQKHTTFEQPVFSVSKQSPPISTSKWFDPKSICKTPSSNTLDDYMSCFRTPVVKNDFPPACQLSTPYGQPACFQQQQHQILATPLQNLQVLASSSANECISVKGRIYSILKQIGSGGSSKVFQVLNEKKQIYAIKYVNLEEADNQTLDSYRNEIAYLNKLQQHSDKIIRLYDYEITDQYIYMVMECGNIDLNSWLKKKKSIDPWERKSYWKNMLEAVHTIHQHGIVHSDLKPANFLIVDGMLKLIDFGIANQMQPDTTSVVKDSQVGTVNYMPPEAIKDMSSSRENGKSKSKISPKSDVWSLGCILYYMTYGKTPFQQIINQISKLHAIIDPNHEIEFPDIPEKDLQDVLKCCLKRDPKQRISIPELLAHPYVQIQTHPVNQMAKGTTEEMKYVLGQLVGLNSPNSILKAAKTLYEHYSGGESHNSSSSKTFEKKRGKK
# Chain of PLK4 (human) (O00444 whole entry, looked up): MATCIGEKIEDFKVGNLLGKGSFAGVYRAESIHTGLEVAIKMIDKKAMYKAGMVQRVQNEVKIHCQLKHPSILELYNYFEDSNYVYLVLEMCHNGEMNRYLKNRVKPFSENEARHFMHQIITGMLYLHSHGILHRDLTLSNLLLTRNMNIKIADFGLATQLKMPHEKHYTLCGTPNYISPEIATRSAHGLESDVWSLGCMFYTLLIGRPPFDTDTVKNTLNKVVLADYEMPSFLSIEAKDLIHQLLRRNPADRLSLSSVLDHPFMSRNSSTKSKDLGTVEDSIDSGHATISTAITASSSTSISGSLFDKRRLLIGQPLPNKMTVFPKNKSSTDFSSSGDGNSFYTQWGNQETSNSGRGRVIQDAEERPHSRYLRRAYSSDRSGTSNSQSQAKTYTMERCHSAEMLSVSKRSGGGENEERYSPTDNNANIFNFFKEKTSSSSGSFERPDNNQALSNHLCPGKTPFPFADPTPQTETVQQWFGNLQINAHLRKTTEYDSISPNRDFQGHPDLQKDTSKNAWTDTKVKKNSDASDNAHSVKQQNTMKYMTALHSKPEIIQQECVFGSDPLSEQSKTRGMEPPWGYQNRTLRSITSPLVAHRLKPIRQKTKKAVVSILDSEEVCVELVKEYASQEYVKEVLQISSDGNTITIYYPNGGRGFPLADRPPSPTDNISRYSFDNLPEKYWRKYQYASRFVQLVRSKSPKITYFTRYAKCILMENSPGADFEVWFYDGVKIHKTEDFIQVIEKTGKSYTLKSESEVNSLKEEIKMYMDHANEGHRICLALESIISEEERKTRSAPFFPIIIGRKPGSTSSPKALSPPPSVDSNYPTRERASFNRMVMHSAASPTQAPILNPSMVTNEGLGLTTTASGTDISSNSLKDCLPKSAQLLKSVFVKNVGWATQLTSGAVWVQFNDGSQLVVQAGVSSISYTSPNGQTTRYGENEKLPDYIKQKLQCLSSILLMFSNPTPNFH
# Chain of DCLK1 (human) (O15075 whole entry, looked up): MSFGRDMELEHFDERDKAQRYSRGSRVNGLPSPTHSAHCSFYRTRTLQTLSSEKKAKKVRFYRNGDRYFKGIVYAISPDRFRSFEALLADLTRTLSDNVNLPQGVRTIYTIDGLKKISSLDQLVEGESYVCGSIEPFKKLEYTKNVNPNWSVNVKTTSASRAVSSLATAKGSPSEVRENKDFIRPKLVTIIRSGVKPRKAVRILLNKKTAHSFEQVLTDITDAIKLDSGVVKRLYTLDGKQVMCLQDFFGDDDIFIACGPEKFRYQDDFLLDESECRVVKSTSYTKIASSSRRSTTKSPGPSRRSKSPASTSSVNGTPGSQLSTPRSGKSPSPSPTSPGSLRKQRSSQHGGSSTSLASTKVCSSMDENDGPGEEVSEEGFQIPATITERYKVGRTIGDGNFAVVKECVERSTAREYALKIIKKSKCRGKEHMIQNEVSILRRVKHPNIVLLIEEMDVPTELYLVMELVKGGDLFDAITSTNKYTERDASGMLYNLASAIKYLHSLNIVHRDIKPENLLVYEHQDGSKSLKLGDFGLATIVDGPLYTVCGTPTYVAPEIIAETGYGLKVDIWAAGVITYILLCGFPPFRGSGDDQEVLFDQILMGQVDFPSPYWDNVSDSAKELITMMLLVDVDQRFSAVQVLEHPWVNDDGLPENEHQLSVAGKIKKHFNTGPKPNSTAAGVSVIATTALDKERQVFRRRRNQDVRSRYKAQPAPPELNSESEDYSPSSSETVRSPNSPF
# Chain of RIOK3 (human) (O14730 whole entry, looked up): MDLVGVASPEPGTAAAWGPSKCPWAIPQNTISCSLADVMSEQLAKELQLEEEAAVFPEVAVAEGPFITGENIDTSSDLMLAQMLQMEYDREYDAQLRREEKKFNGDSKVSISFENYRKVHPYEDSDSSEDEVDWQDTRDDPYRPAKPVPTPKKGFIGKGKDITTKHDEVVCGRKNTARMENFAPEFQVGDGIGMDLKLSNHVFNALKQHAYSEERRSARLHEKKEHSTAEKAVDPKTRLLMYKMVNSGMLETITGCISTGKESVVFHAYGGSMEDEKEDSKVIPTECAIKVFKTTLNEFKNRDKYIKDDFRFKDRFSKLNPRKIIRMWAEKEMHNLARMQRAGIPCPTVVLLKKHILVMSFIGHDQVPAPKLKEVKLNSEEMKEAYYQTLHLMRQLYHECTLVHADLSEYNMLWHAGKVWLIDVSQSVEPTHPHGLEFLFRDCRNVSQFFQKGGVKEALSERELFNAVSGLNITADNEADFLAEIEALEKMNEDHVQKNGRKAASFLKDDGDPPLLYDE
smiles,measurement,setting,value
COc1cc(N2CCN(C)CC2)ccc1Nc1ncc2c(n1)N(C(C)C)c1ccccc1C(=O)N2C,"kinase still bound, per cent of control",[1],22%
same,"kinase still bound, per cent of control",ALK (human),14%
same,"kinase still bound, per cent of control",DCLK1 (human),1.2%
same,"kinase still bound, per cent of control",DCLK2 (human),1.2%
same,"kinase still bound, per cent of control",FRK (human),31%
same,"kinase still bound, per cent of control",MAPK7 (human),0%
same,"kinase still bound, per cent of control",PLK1 (human),25%
same,"kinase still bound, per cent of control",PLK4 (human),0.15%
same,"kinase still bound, per cent of control",PTK2 (human),18%
same,"kinase still bound, per cent of control",ROS1 (human),9.2%
same,"kinase still bound, per cent of control",TNK1 (human),3.8%
same,"kinase still bound, per cent of control",TNK2 (human),27%
same,"kinase still bound, per cent of control",TTK (human) [2],8%
same,"kinase still bound, per cent of control",ULK2 (human),25%
CC[C@@H]1C(=O)N(C)c2cnc(Nc3ccc(N(C)CCCO)cc3OC)nc2N1C1CCCC1,Kd,TTK (human) [2],3100 nM
same,IC50,TTK (human) [3],> 10000 nM
CCN1C(=O)CCN(C2CCCC2)c2nc(Nc3ccc(N4CCC(O)CC4)cn3)ncc21,"kinase still bound, per cent of control",CLK2 (human),33%
same,"kinase still bound, per cent of control",DCLK1 (human),8.2%
same,"kinase still bound, per cent of control",DCLK2 (human),30%
same,"kinase still bound, per cent of control",FLT3 (human),31%
same,"kinase still bound, per cent of control",[4],27%
same,"kinase still bound, per cent of control",GAK (human),16%
same,"kinase still bound, per cent of control",KIT (human),33%
same,"kinase still bound, per cent of control",[5],31%
same,"kinase still bound, per cent of control",PDGFRB (human),11%
same,"kinase still bound, per cent of control",PLK1 (human),1.8%
same,"kinase still bound, per cent of control",PLK4 (human),24%
same,"kinase still bound, per cent of control",RPS6KA2 KD2 (human),32%
same,"kinase still bound, per cent of control",STK33 (human),23%
same,Kd,TTK (human) [2],582 nM
same,"kinase still bound, per cent of control",TTK (human) [2],2%
same,IC50,TTK (human) [3],3450 nM
CC[C@@H]1C(=O)N(C)c2cnc(Nc3ccc(N4CCC(O)CC4)cc3OC)nc2N1C1CCCC1,Kd,TTK (human) [2],1410 nM
same,IC50,TTK (human) [3],> 10000 nM
CCN1C(=O)CCN(C2CCCC2)c2nc(Nc3ccc(N4CCC(O)CC4)cc3OC(C)C)ncc21,"kinase still bound, per cent of control",PLK1 (human),4.1%
same,"kinase still bound, per cent of control",RPS6KA2 KD2 (human),12%
same,Kd,TTK (human) [2],253 nM
same,"kinase still bound, per cent of control",TTK (human) [2],1.9%
same,IC50,TTK (human) [3],1090 nM
CS(=O)(=O)Nc1ccc(-c2ccc(C=C3C(=O)NC(=O)NC3=O)o2)cc1,"kinase still bound, per cent of control",CAMKK2 (human),34%
same,"kinase still bound, per cent of control",[6],20%
CC[C@@H]1C(=O)N(C)c2cnc(Nc3ccc(N(C)CCO)cc3OC)nc2N1C1CCCC1,Kd,TTK (human) [2],4700 nM
same,IC50,TTK (human) [3],> 10000 nM
CCN1C(=O)CC(C(C)C)N(C2CCCC2)c2nc(Nc3ccc(C(=O)NC4CCN(C)CC4)cc3OC)ncc21 (stereo unspecified),"kinase still bound, per cent of control",CAMK2A (human),9.3%
same,"kinase still bound, per cent of control",CAMK2D (human),23%
same,"kinase still bound, per cent of control",CAMK2G (human),16%
same,"kinase still bound, per cent of control",DCLK1 (human),0.9%
same,"kinase still bound, per cent of control",DCLK2 (human),1.6%
same,"kinase still bound, per cent of control",PTK2B (human),34%
same,"kinase still bound, per cent of control",STK33 (human),31%
NS(=O)(=O)c1ccc(-c2ccc(/C=C3\C(=O)Nc4cccc(Br)c43)o2)cc1,"kinase still bound, per cent of control",BMP2K (human),34%
same,"kinase still bound, per cent of control",MKNK2 (human),34%
same,"kinase still bound, per cent of control",MYLK4 (human),1.8%
same,"kinase still bound, per cent of control",RIOK1 (human),15%
same,"kinase still bound, per cent of control",RIOK3 (human),17%
same,"kinase still bound, per cent of control",SRPK1 (human),16%
same,"kinase still bound, per cent of control",TTK (human) [2],28%
O=C1NC(=O)C(=Cc2ccc(-c3ccc(Cl)cc3)o2)C(=O)N1,"kinase still bound, per cent of control",MAP2K3 (human),15%
same,"kinase still bound, per cent of control",MAP2K4 (human),14%
NS(=O)(=O)c1ccc(-c2ccc(/C=C3\C(=O)Nc4ccccc43)o2)cc1,"kinase still bound, per cent of control",AAK1 (human),23%
same,"kinase still bound, per cent of control",BMP2K (human),7.7%
same,"kinase still bound, per cent of control",CLK2 (human),25%
same,"kinase still bound, per cent of control",MYLK4 (human),3.1%
same,"kinase still bound, per cent of control",PIM3 (human),28%
same,"kinase still bound, per cent of control",RIOK1 (human),11%
same,"kinase still bound, per cent of control",RIOK3 (human),6.2%
same,"kinase still bound, per cent of control",SRPK1 (human),12%
same,"kinase still bound, per cent of control",SRPK3 (human),26%
same,"kinase still bound, per cent of control",STK17A (human),12%
same,"kinase still bound, per cent of control",[7],24%
CC[C@@H]1C(=O)N(C)c2cnc(Nc3ccc(N4CCCC(O)C4)cc3OC)nc2N1C1CCCC1 (stereo partly specified),Kd,TTK (human) [2],2650 nM
same,IC50,TTK (human) [3],> 10000 nM
CCN1C(=O)CC(c2ccccc2)N(C2CCCC2)c2nc(Nc3ccc(C(=O)NC4CCN(C)CC4)cc3OC)ncc21 (stereo unspecified),"kinase still bound, per cent of control",CAMK2A (human),20%
same,"kinase still bound, per cent of control",CAMK2D (human),30%
same,"kinase still bound, per cent of control",CAMK2G (human),26%
same,"kinase still bound, per cent of control",DCLK1 (human),23%
same,"kinase still bound, per cent of control",MKNK2 (human),33%
same,"kinase still bound, per cent of control",MYLK (human),26%
same,"kinase still bound, per cent of control",PLK1 (human),0.55%
same,"kinase still bound, per cent of control",STK33 (human),20%
O=C1NC(=S)S/C1=C\c1ccc(-c2cccc3cc[nH]c23)o1,IC50,PIM1 (human),905 nM
same,IC50,PIM2 (human),509 nM
same,IC50,TTK (human) [3],145 nM
COc1cc(N(C)CCCO)ccc1Nc1ncc2c(n1)N(C1CCCC1)CCC(=O)N2C,"kinase still bound, per cent of control",GAK (human),1.9%
same,"kinase still bound, per cent of control",PLK1 (human),1.7%
same,"kinase still bound, per cent of control",PLK3 (human),0%
same,"kinase still bound, per cent of control",PLK4 (human),12%
same,"kinase still bound, per cent of control",PTK2 (human),16%
same,"kinase still bound, per cent of control",PTK2B (human),29%
same,"kinase still bound, per cent of control",STK33 (human),11%
same,"kinase still bound, per cent of control",TNK1 (human),31%
same,Kd,TTK (human) [2],58.8 nM
same,"kinase still bound, per cent of control",TTK (human) [2],2.6%
same,IC50,TTK (human) [3],640 nM
CCOc1cc(N2CCC(O)CC2)ccc1Nc1ncc2c(n1)N(C1CCCC1)CCC(=O)N2,Kd,TTK (human) [2],650 nM
same,IC50,TTK (human) [3],7450 nM
